Measurements published in patent publication US20170333459A1 (priority 2010, published 2017).

System: ectromelia, cowpox, vaccinia, or monkeypox virus
Parameters: species or system mice
Details: mouse, in vivo

SMILES: CCCCCCCCCCCCCCCCOCCCOP(=O)(O)CO[C@H](CO)Cn1ccc(N)nc1=O [CMX001, 1-O-hexadecyloxypropyl cidofovir]
- preventing mortality: effective in preventing mortality
